Results reported in US20190136321A1, “USE OF TRANSLATIONAL PROFILING TO IDENTIFY TARGET MOLECULES FOR THERAPEUTIC TREATMENT” (The Regents of The University of California, priority 2013, published 2019).

How the values were obtained:
[1] = test system: Pten^L/L mice; test: Pharmacological treatment of Pten^L/L mice (preclinical trial, prostate cancer); format: in vivo, mouse; conditions: Pten^L/L mice, RAD001 10 mg/kg daily
Protocol: Pten^loxp/loxp and Pb-cre mice where obtained from Jackson Laboratories and Mouse Models of Human Cancers Consortium (MMHCC), respectively, and maintained in the C57BL/6 background. Mice were maintained under specific pathogen-free conditions, and experiments were performed in compliance with institutional guidelines as approved by the Institutional Animal Care and Use Committee of UCSF.
Weight measurements were taken every 3 days to monitor for toxicity. For the 28-day study, mice were imaged via […] at day 0 and day 28 in a 14-T GE MR scanner (GE Healthcare).
Whole mouse prostates were removed from wild-type and Pten^L/L mice, microdissected, and frozen in liquid nitrogen. Frozen tissues were subsequently manually disassociated using a biopulverizer (Biospec) and additionally processed for protein and mRNA analysis as described above.
Prostates and lymph nodes were dissected from mice within 2 hr of the indicated treatment and fixed in 10% formalin overnight at 4° C. Tissues were subsequently dehydrated in ethanol (Sigma) at room temperature, mounted into paraffin blocks, and sectioned at […] Specimens were de-paraffinized and rehydrated using CitriSolv (Fisher) followed by serial ethanol washes. […] Sections were washed in distilled water followed by TBS washes. The sections were then incubated in 5% goat serum, 1% BSA in TBS for 1 hr at room temperature. Various primary antibodies were used, including those specific for keratin 5 (Covance), cytokeratin 8 (Abcam and Covance), YB1 (Abcam), vimentin (Abcam), MTA1 (Cell signaling), CD44 (BD Pharmingen), and the androgen receptor (Epitomics), which were diluted 1:50-1:500 in blocking solution and incubated on sections overnight at 4° C. Specimens were then washed in TBS and incubated with the appropriate Alexa 488 and 594 labeled secondary (Invitrogen) at 1:500 for 2 hr at room temperature, with the exception of YB1 which was incubated with biotinylated anti-rabbit secondary (Vector) followed by incubation with Alexa 594 labeled Streptavidin (Invitrogen). A final set of washes in TBS was completed at room temperature followed by mounting with DAPI Hardset Mounting Medium (Vector Lab). A Zeiss Spinning Disc confocal (Zeiss, CSU-X1) was used to image the sections at 40×-100×. Individual prostate cells were quantified for mean fluorescence intensity (m.f.i.) using the Axiovision (Zeiss, Release 4.8) densitometric tool.
Mouse lymph nodes were processed as described above and stained for CK8 and androgen receptor. Lymph nodes were imaged using a Zeiss AX10 microscope. Metastases were identified and areas were measured using the Axiovision (Zeiss, Release 4.8) measurement tool.
Immunohistochemistry was performed as described above (see “Immunofluorescence”) with the exception that immediately after antigen […] and TBS washes, specimens were incubated in 3% hydrogen peroxide in TBS followed by TBS washes. The following primary antibodies were used: phospho-AKT^S473 (Cell Signaling), phospho-rpS6^S240/244 (Cell Signaling), phospho-4EBP1^T37/46 (Cell Signaling), phospho-histone H3 (Upstate), and cleaved caspase (Cell Signaling). This was followed by TBS washes and incubation with the appropriate biotinylated secondary antibody (Vector Lab) for 30 min at room temperature. An ABC-HRP Kit (Vector Lab) was used to amplify the signal, followed by a brief incubation in hydrogen peroxide. The protein of interest was detected using DAB (Sigma). Specimens were counterstained with haematoxylin (Thermo Scientific), dehydrated with Citrisolv (Fisher), and mounted with Cytoseal XYL (Vector Lab).
Paraffin-embedded prostate specimens were deparaffinized and rehydrated as described above (see “Immunofluorescence”), stained with haematoxylin (Thermo Scientific), and washed with water. This was followed by a brief incubation in differentiation RTU (VWR) and two washes with water followed by two 70% ethanol washes. […]

[2] = test system: PC3 cells; test: Ribosome profiling and RNA-seq of PC3 cells (translational efficiency, mRNA abundance); format: cell-based, human;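 note: mRNA is RNA-seq average read density per codon over the coding sequence, translational efficiency is ribosome footprint over RNA-seq density, scaled so the median gene equals 1.0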
Protocol: Given the critical role for mTOR in prostate cancer, PC3 human prostate cancer cells, in which mTOR is constitutively hyperactivated, were used to delineate translationally controlled gene expression networks upon complete or partial mTOR inhibition. Ribosome profiling was optimized to assess quantitatively ribosome occupancy genome-wide in cancer cells.
Cells were subsequently treated with cycloheximide (100 μg ml^−1) and detergent lysis was performed in the dish. The lysate was treated with DNase and clarified, and a sample was taken for RNA-seq analysis. Lysates were subjected to ribosome footprinting by nuclease treatment. Ribosome-protected fragments were purified, and deep sequencing libraries were generated from these fragments, as well as from poly(A) mRNA purified from non-nuclease-treated lysates.
Ribosome footprint and RNA-seq sequencing reads were aligned against a library of transcripts from the UCSC Known Genes database GRCh37/hg19. The first 25 nucleotides of each read were aligned using Bowtie and this initial alignment was then extended to encompass the full fragment-derived portion of the sequencing read while excluding the linker sequence. Read density profiles were then constructed for the canonical transcript of each gene, using only reads with 0 or 1 total mismatches between the read sequence and the reference sequence, comprised of the transcript fragment followed by the linker sequence. Footprint reads were assigned to an A site nucleotide at position +15 to +17 of the alignment, based on the total fragment length; mRNA reads were assigned to the first nucleotide of the alignment. The average read density per codon was then computed for the coding sequence of each transcript, excluding the first 15 and last 5 codons, which can display atypical ribosome accumulation.
Average read density was used as a measure of mRNA abundance (RNA-seq reads) and of protein synthesis (ribosome profiling reads). For most analyses, genes were filtered to require at least 256 reads in the relevant RNA-seq samples. Translational efficiency was computed as the ratio of ribosome footprint read density to RNA-seq read density, scaled to normalize the translational efficiency of the median gene to 1.0 after excluding regulated genes (log2 fold-change ±1.5 after normalizing for the all-gene median). Changes in protein synthesis, mRNA abundance and translational efficiency were similarly computed as the ratio of read densities between different samples, normalized to give the median gene a ratio of 1.0. This normalization corrects for differences in the absolute number of sequencing reads obtained for different libraries.

CO[C@H]1C[C@@H]2CC[C@@H](C)[C@@](O)(O2)C(=O)C(=O)N2CCCC[C@H]2C(=O)O[C@H]([C@H](C)C[C@@H]2CC[C@@H](OCCO)[C@H](OC)C2)CC(=O)[C@H](C)/C=C(\C)[C@@H](O)[C@@H](OC)C(=O)[C@H](C)C[C@H](C)/C=C/C=C/C=C/1C [RAD001]
regression of PIN lesions ([1]; 28 days): only partial regression | proliferation (phospho-histone H3) ([1]; ATP site inhibitor of mTOR 1 mg/kg daily): limited decrease

CO[C@H]1C[C@@H]2CC[C@@H](C)[C@@](O)(O2)C(=O)C(=O)N2CCCC[C@H]2C(=O)O[C@H]([C@H](C)C[C@@H]2CC[C@@H](O)[C@H](OC)C2)CC(=O)[C@H](C)/C=C(\C)[C@@H](O)[C@@H](OC)C(=O)[C@H](C)C[C@H](C)/C=C/C=C/C=C/1C [rapamycin]
TrlEff ([2]; gene ACTG1): −0.07 | mRNA ([2]; gene ACTG1): 0.02 | mRNA ([2]; gene AGRN): 0.01 | mRNA ([2]; gene AHCY): 0.20 | mRNA ([2]; gene ALKBH7): 0.06 | TrlEff ([2]; gene AP2A1): −0.04 | mRNA ([2]; gene AP2A1): 0.09 | TrlEff ([2]; gene ARD1A): 0.01 | mRNA ([2]; gene ARD1A): −0.04 | TrlEff ([2]; gene C21orf66): −0.09 | mRNA ([2]; gene C21orf66): −0.30 | TrlEff ([2]; gene CIRBP): 0.10 | mRNA ([2]; gene CLPTM1): 0.07 | mRNA ([2]; gene COL6A2): −0.08 | mRNA ([2]; gene ECSIT): −0.04 | TrlEff ([2]; gene EEF1A2): −0.03 | mRNA ([2]; gene EEF1A2): 0.03 | TrlEff ([2]; gene EVPL): 0.30 | mRNA ([2]; gene EVPL): −0.08 | mRNA ([2]; gene FAM128B): 0.06 | mRNA ([2]; gene IPO7): 0.20 | TrlEff ([2]; gene MTA1): −0.05 | mRNA ([2]; gene MTA1): 0.00 | mRNA ([2]; gene NCLN): −0.05 | TrlEff ([2]; gene PABPC4): −0.80 | TrlEff ([2]; gene PACS1): 0.04 | mRNA ([2]; gene PACS1): 0.07 | TrlEff ([2]; gene PGLS): 0.20 | mRNA ([2]; gene PGLS): 0.03 | mRNA ([2]; gene PGM1): 0.40 | mRNA ([2]; gene RABGGTB): −0.20 | mRNA ([2]; gene RPL6): 0.09 | TrlEff ([2]; gene RPL8): −0.40 | TrlEff ([2]; gene RPL9): −1.00 | mRNA ([2]; gene RPL10): 0.09 | mRNA ([2]; gene RPL11): 0.09 | mRNA ([2]; gene RPL12): 0.07 | mRNA ([2]; gene RPL14): 0.07 | mRNA ([2]; gene RPL17): 0.05 | mRNA ([2]; gene RPL18): 0.08 | mRNA ([2]; gene RPL22): 0.08 | mRNA ([2]; gene RPL23): 0.09 | mRNA ([2]; gene RPL27): 0.05 | mRNA ([2]; gene RPL27A): 0.06 | TrlEff ([2]; gene RPL29): −0.50 | mRNA ([2]; gene RPL29): 0.10 | mRNA ([2]; gene RPL31): −0.02 | mRNA ([2]; gene RPL36): 0.09 | mRNA ([2]; gene RPL37A): 0.08 | mRNA ([2]; gene RPL41): 0.04 | mRNA ([2]; gene RPS2): 0.07 | mRNA ([2]; gene RPS8): 0.09 | TrlEff ([2]; gene RPS9): −0.60 | mRNA ([2]; gene RPS9): 0.10 | mRNA ([2]; gene RPS13): 0.07 | TrlEff ([2]; gene RPS14): −0.60 | mRNA ([2]; gene RPS14): 0.10 | TrlEff ([2]; gene RPS15): 0.03 | mRNA ([2]; gene RPS15): −0.01 | mRNA ([2]; gene RPS15A): 0.07 | TrlEff ([2]; gene RPS21): −0.60 | mRNA ([2]; gene RPS21): −0.01 | mRNA ([2]; gene RPS25): 0.04 | mRNA ([2]; gene RPS27): 0.10 | TrlEff ([2]; gene RPS28): −0.80 | mRNA ([2]; gene RPS28): 0.01 | mRNA ([2]; gene RPS29): −0.01 | TrlEff ([2]; gene SLC25A5): −0.30 | mRNA ([2]; gene TKT): 0.02 | TrlEff ([2]; gene VIM): −0.40
